Measured values reported in PubChem BioAssay (NCI).
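Values below derive from 48-hour exposures of cells grown in 96-well plates, with endpoints linearly interpolated between the two concentrations bracketing the appropriate inhibition level. Abbreviation: GI50, concentration required for 50% inhibition of growth. TGI: total growth inhibition.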

How the values were obtained:
Assay in all cases: inhibition of tumour cell growth, NCI panel, 48 h
[1] = system: NCI-H460 lung
[2] = system: UACC-62 melanoma
[3] = system: K-562 leukemia
[4] = system: CAKI-1 renal
[5] = system: RXF 393 renal
[6] = system: M14 melanoma
[7] = system: MDA-MB-231 breast
[8] = system: SF-539 CNS
[9] = system: SK-MEL-2 melanoma
[10] = system: ACHN renal
[11] = system: HCC-2998 colon
[12] = system: MALME-3M melanoma
[13] = system: HOP-92 NSCLC
[14] = system: T-47D breast
[15] = system: CCRF-CEM leukemia
[16] = system: SN12C renal
[17] = system: 786-0 renal
[18] = system: HT29 colon
[19] = system: OVCAR-8 ovarian
[20] = system: RPMI-8226 leukemia
[21] = system: OVCAR-4 ovarian
[22] = system: KM12 colon
[23] = system: SR leukemia
[24] = system: EKVX NSCLC
[25] = system: COLO 205 colon
[26] = system: SNB-19 CNS
[27] = system: SNB-75 CNS
[28] = system: NCI/ADR-RES ovarian
[29] = system: UO-31 renal
[30] = system: IGROV1 ovarian
[31] = system: SK-MEL-5 melanoma
[32] = system: MCF7 breast
[33] = system: TK-10 renal
[34] = system: DU-145 prostate
[35] = system: HCT-15 colon
[36] = system: UACC-257 melanoma
[37] = system: NCI-H522 lung
[38] = system: HS 578T breast
[39] = system: HOP-62 NSCLC
[40] = system: OVCAR-3 ovarian
[41] = system: SF-268 CNS
[42] = system: SW-620 colon
[43] = system: HL-60(TB) leukemia
[44] = system: A549 NSCLC
[45] = system: SK-MEL-28 melanoma
[46] = system: SK-OV-3 ovarian
[47] = system: LOX IMVI melanoma
[48] = system: HCT-116 colon
[49] = system: A498 renal
[50] = system: NCI-H226 lung
[51] = system: PC-3 prostate
[52] = system: SF-295 CNS
[53] = system: U251 CNS
[54] = system: BT-549 breast
[55] = system: MOLT-4 leukemia
[56] = system: OVCAR-5 ovarian
[57] = system: MDA-MB-435

## COc1cc(OC)c(S(N)(=O)=O)cc1C(=O)/C=C/c1ccc(Cl)cc1
[1]
  GI50: 2.84 µM
  TGI: 12 µM
[2]
  GI50: 2.67 µM
  TGI: 10.6 µM
[3]
  GI50: 1.85 µM
  TGI: 13.6 µM
[4]
  GI50: 1.89 µM
  TGI: 10.5 µM
[5]
  GI50: 1.62 µM
  TGI: 3.34 µM
[6]
  GI50: 1.47 µM
  TGI: 3.14 µM
[7]
  GI50: 3.92 µM
  TGI: 18.9 µM
[8]
  GI50: 2.14 µM
  TGI: 4.82 µM
[9]
  GI50: 11.5 µM
  TGI: 25.6 µM
[10]
  GI50: 3.16 µM
  TGI: 11.1 µM
[11]
  GI50: 2.41 µM
  TGI: 6.12 µM
[12]
  GI50: 2.79 µM
  TGI: 8.51 µM
[13]
  GI50: 1.46 µM
  TGI: 4.92 µM
[14]
  GI50: 2.37 µM
  TGI: 12.4 µM
[15]
  GI50: 1.52 µM
  TGI: > 100 µM
[16]
  GI50: 2.48 µM
  TGI: 12.6 µM
[17]
  GI50: 1.9 µM
  TGI: 4.32 µM
[18]
  GI50: 2.18 µM
  TGI: 4.66 µM
[19]
  GI50: 3.01 µM
  TGI: 14.6 µM
[20]
  GI50: 1.86 µM
  TGI: 6.33 µM
[21]
  GI50: 3.54 µM
  TGI: 27 µM
[22]
  GI50: 1.82 µM
  TGI: 7.06 µM
[23]
  GI50: 2.11 µM
  TGI: 7.84 µM
[24]
  GI50: 3.88 µM
  TGI: 22.3 µM
[25]
  GI50: 1.66 µM
  TGI: 3.13 µM
[26]
  GI50: 3.17 µM
  TGI: 16.7 µM
[27]
  GI50: 1.5 µM
  TGI: 3.23 µM
[28]
  GI50: 3.97 µM
  TGI: > 100 µM
[29]
  GI50: 2.36 µM
  TGI: 10.3 µM
[30]
  GI50: 2.95 µM
  TGI: 12.3 µM
[31]
  GI50: 4.93 µM
  TGI: 16.9 µM
[32]
  GI50: 1.08 µM
  TGI: 4.11 µM
[33]
  GI50: 2.91 µM
  TGI: 8.89 µM
[34]
  GI50: 3.44 µM
  TGI: 15.4 µM
[35]
  GI50: 1.46 µM
  TGI: 10.2 µM
[36]
  GI50: 5.46 µM
  TGI: 22.7 µM
[37]
  GI50: 1.63 µM
  TGI: 3.42 µM
[38]
  GI50: 4.22 µM
  TGI: > 100 µM
[39]
  GI50: 2.58 µM
  TGI: 6.59 µM
[40]
  GI50: 3.51 µM
  TGI: 17.6 µM
[41]
  GI50: 3.75 µM
  TGI: 26.1 µM
[42]
  GI50: 2.49 µM
  TGI: 11.7 µM
[43]
  GI50: 1.91 µM
  TGI: 8.88 µM
[44]
  GI50: 3.17 µM
  TGI: 14.2 µM
[45]
  GI50: 3.03 µM
  TGI: 9.87 µM
[46]
  GI50: 2.8 µM
  TGI: 8.22 µM
[47]
  GI50: 0.733 µM
  TGI: 2.51 µM
[48]
  GI50: 0.748 µM
  TGI: 2.13 µM
[49]
  GI50: 18.6 µM
  TGI: 34 µM
[50]
  GI50: 2.56 µM
  TGI: 8.86 µM
[51]
  GI50: 1.6 µM
  TGI: 4.25 µM
[52]
  GI50: 3.88 µM
  TGI: 12.5 µM
[53]
  GI50: 2.18 µM
  TGI: 6.48 µM
[54]
  GI50: 1.25 µM
  TGI: 2.73 µM
[55]
  GI50: 2.82 µM
  TGI: 13 µM
[56]
  GI50: 3.18 µM
  TGI: 11.5 µM
[57]
  GI50: 2.08 µM
  TGI: 6.54 µM
